The conditions of series [1]: comparison value, cited from earlier work.
Series [2] in a line: Leaching of chromoionophore from ISE membrane during conditioning and measurement. Type of series: physicochemical. The note with it: conditioning in contact with buffer and measurements. The method, then:
ISE Membrane Preparation and Measurements. ISE membranes were prepared by dissolving chromoionophore (10 mmol/kg), NaTFPB (2 mmol/kg), PVC and plasticizer (DOS or NPOE) to give a total cocktail mass of 140 mg in 1.5 mL of THF. The cocktail of the membrane with grafted chromoionophore contained 2 mmol/kg NaTFPB, 10 wt % MMA-DMA polymer with grafted indicators, PVC and plasticizer (DOS or NPOE). Cocktails were poured into glass rings (2.2 cm i.d.) affixed onto glass microscope slides.
The solvent was evaporated overnight to give a transparent membrane. The parent membranes were then conditioned for at least 12 hours in pH buffered solutions. For pH titrations, buffer solutions are 10 mM citric acid and 10 mM boric acid with the indicated concentrations of NaCl (either 10 mM or 0.1 mM) adjusted to pH 1.5 by 1 M standard HCl, or 10 mM phosphate buffer solution with NaCl as background. The solution was titrated with a 0.1 M standard NaOH solution and a pH electrode was used to monitor the sample pH. All experimental results given are the average of at least three electrodes, with calculated standard deviations.
The first polymerizable chromoionophore NB1 is a derivative of the highly basic oxazine-dye molecule Nile Blue attached to a acryloyloxybenzoyl group. The pH responses of NB1 based ion selective electrode (“ISE”) membranes were investigated first. […]

Where two headings read alike, the source gives them in different places.

Regarding `CCCCCCCCCCCCCCCCCC(=O)N=c1cc2oc3cc(N(CC)CC)ccc3nc-2c2ccccc12` [ETH 5294, 9-(diethylamino)-5-octadecanoylimino-5H-benzo[a]phenoxazine], the pKa in series [1] (PVC-DOS) is 11.4; in series [1] (PVC-NPOE), 14.8.
For `C=CC(=O)Oc1ccc(C(=O)/N=c2/cc3oc4cc(N(CC)CC)ccc4nc-3c3ccccc23)cc1` [NB1], in series [2], the “leaching of the dye from the ISE membrane” value is on record as “found to leach from the membrane”.

In general, pKa refers to the pH at which an ionisable group is half protonated.

Values taken from patent publication US8242203B2, “Covalently attached nile blue derivatives for optical sensors” (priority 2005, dated 2012).
